Laboratory results from the OligoGym collection.
Oligonucleotides are written 5' to 3', each unit as a sugar letter and its base; * is a phosphorothioate linkage, no mark a phosphodiester; rarer units and linkages stand in square brackets, end groups in braces. Plain capitals give the bases only. d = 2'-deoxy (DNA); r = 2'-OH (RNA)

What follows are substances tested against UBE2V1 (assay: reporter assay of Huesken 2005). Conditions: siRNA.
Further: test concentration or dose not given here.

Row | Substance | normalised inhibition (eCFP-eYFP dual reporter)
1 | sense rArGrArArArGrGrArGrUrArGrGrArGrArUrGrGdTdT / antisense rCrCrArUrCrUrCrCrUrArCrUrCrCrUrUrUrCrUdGdG | 58.6%
2 | sense rGrCrCrUrCrCrArArGrArArCrArArUrUrUrArUdTdT / antisense rArUrArArArUrUrGrUrUrCrUrUrGrGrArGrGrCdCdC | 76.5%
3 | sense rArArCrCrGrArArUrArUrArCrArGrCrCrUrUrAdTdT / antisense rUrArArGrGrCrUrGrUrArUrArUrUrCrGrGrUrUdTdT | 96.1%
4 | sense rUrUrArArArArUrArGrArArUrGrUrGrGrArCrCdTdT / antisense rGrGrUrCrCrArCrArUrUrCrUrArUrUrUrUrArAdGdG | 38.8%
5 | sense rUrCrGrCrArArUrUrUrCrCrGrArCrUrGrUrUrGdTdT / antisense rCrArArCrArGrUrCrGrGrArArArUrUrGrCrGrAdGdG | 85.6%
6 | sense rArCrCrUrArGrArArArArUrUrUrCrArCrUrGrCdTdT / antisense rGrCrArGrUrGrArArArUrUrUrUrCrUrArGrGrUdTdC | 36.5%
7 | sense rArGrArGrCrCrArUrArUrCrArGrUrGrCrUrArGdTdT / antisense rCrUrArGrCrArCrUrGrArUrArUrGrGrCrUrCrUdTdG | 90.3%
8 | sense rGrArArGrArArCrUrCrGrArArGrArArGrGrCrCdTdT / antisense rGrGrCrCrUrUrCrUrUrCrGrArGrUrUrCrUrUrCdCdA | 53.8%
9 | sense rCrArGrArArUrUrCrArUrArUrArGrCrArUrCrAdTdT / antisense rUrGrArUrGrCrUrArUrArUrGrArArUrUrCrUrGdCdC | 90%
10 | sense rArArUrGrGrArGrUrGrGrUrGrGrArCrCrCrArAdTdT / antisense rUrUrGrGrGrUrCrCrArCrCrArCrUrCrCrArUrUdAdG | 83.5%
11 | sense rArGrArCrUrUrGrArArCrCrUrArGrArArArArUdTdT / antisense rArUrUrUrUrCrUrArGrGrUrUrCrArArGrUrCrUdTdC | 71.4%
12 | sense rArGrArArGrGrCrCrArGrArArArGrGrArGrUrAdTdT / antisense rUrArCrUrCrCrUrUrUrCrUrGrGrCrCrUrUrCrUdTdC | 86.1%
13 | sense rCrArArArGrUrUrGrUrCrCrUrGrCrArArGrArGdTdT / antisense rCrUrCrUrUrGrCrArGrGrArCrArArCrUrUrUrGdAdT | 71.5%
14 | sense rUrGrGrGrGrUrCrUrArGrArArGrArUrGrArCrGdTdT / antisense rCrGrUrCrArUrCrUrUrCrUrArGrArCrCrCrCrAdGdC | 38.8%
15 | sense rUrUrCrCrGrArCrUrGrUrUrGrGrArArGrArArCdTdT / antisense rGrUrUrCrUrUrCrCrArArCrArGrUrCrGrGrArAdAdT | 52.3%
16 | sense rUrUrCrArCrUrGrCrArArArGrGrArGrUrArArAdTdT / antisense rUrUrUrArCrUrCrCrUrUrUrGrCrArGrUrGrArAdAdT | 81.4%
17 | sense rArGrArUrGrGrArCrArGrGrGrArUrGrArUrArAdTdT / antisense rUrUrArUrCrArUrCrCrCrUrGrUrCrCrArUrCrUdTdG | 90%
18 | sense rGrArArGrArUrGrArCrGrArArGrArCrArUrGrAdTdT / antisense rUrCrArUrGrUrCrUrUrCrGrUrCrArUrCrUrUrCdTdA | 95%
19 | sense rUrCrArArArGrUrUrGrUrCrCrUrGrCrArArGrAdTdT / antisense rUrCrUrUrGrCrArGrGrArCrArArCrUrUrUrGrAdTdG | 89.8%
20 | sense rCrCrCrUrCrGrCrArArUrUrUrCrCrGrArCrUrGdTdT / antisense rCrArGrUrCrGrGrArArArUrUrGrCrGrArGrGrGdAdC | 84.5%
21 | sense rGrArArArArUrUrUrCrArCrUrGrCrArArArGrGdTdT / antisense rCrCrUrUrUrGrCrArGrUrGrArArArUrUrUrUrCdTdA | 83.7%
22 | sense rCrCrUrCrCrArArGrArArCrArArUrUrUrArUrGdTdT / antisense rCrArUrArArArUrUrGrUrUrCrUrUrGrGrArGrGdCdC | 63.1%
23 | sense rCrUrArGrArArArArUrUrUrCrArCrUrGrCrArAdTdT / antisense rUrUrGrCrArGrUrGrArArArUrUrUrUrCrUrArGdGdT | 96%
24 | sense rUrArUrArGrCrArUrCrArArArGrUrUrGrUrCrCdTdT / antisense rGrGrArCrArArCrUrUrUrGrArUrGrCrUrArUrAdTdG | 47%
25 | sense rUrCrUrArGrArArGrArUrGrArCrGrArArGrArCdTdT / antisense rGrUrCrUrUrCrGrUrCrArUrCrUrUrCrUrArGrAdCdC | 58%
26 | sense rGrCrArGrArArUrUrCrArUrArUrArGrCrArUrCdTdT / antisense rGrArUrGrCrUrArUrArUrGrArArUrUrCrUrGrCdCdA | 82%

Row | Substance | normalised inhibition (eCFP-eYFP dual reporter)
27 | sense rGrGrGrUrCrUrArGrArArGrArUrGrArCrGrArAdTdT / antisense rUrUrCrGrUrCrArUrCrUrUrCrUrArGrArCrCrCdCdA | 96.3%
28 | sense rUrArCrArArGrArUrGrGrArCrArGrGrGrArUrGdTdT / antisense rCrArUrCrCrCrUrGrUrCrCrArUrCrUrUrGrUrAdAdG | 52.7%
29 | sense rGrGrUrGrGrArCrCrCrArArGrArGrCrCrArUrAdTdT / antisense rUrArUrGrGrCrUrCrUrUrGrGrGrUrCrCrArCrCdAdC | 84.1%
30 | sense rArGrUrArArArArGrUrCrCrCrUrCrGrCrArArUdTdT / antisense rArUrUrGrCrGrArGrGrGrArCrUrUrUrUrArCrUdCdC | 91%
31 | sense rGrGrArUrGrArUrArArUrUrGrGrGrCrCrUrCrCdTdT / antisense rGrGrArGrGrCrCrCrArArUrUrArUrCrArUrCrCdCdT | 70.5%
32 | sense rArGrGrArGrUrArGrGrArGrArUrGrGrCrArCrAdTdT / antisense rUrGrUrGrCrCrArUrCrUrCrCrUrArCrUrCrCrUdTdT | 92.3%
33 | sense rUrCrCrCrUrCrArGrCrCrGrCrCrCrGrArArGrGdTdT / antisense rCrCrUrUrCrGrGrGrCrGrGrCrUrGrArGrGrGrAdGdT | 46.6%
34 | sense rArGrGrArGrArUrGrGrCrArCrArGrUrUrArGrCdTdT / antisense rGrCrUrArArCrUrGrUrGrCrCrArUrCrUrCrCrUdAdC | 60.9%
35 | sense rArUrUrUrCrArCrUrGrCrArArArGrGrArGrUrAdTdT / antisense rUrArCrUrCrCrUrUrUrGrCrArGrUrGrArArArUdTdT | 95%
36 | sense rArGrUrCrCrCrUrCrGrCrArArUrUrUrCrCrGrAdTdT / antisense rUrCrGrGrArArArUrUrGrCrGrArGrGrGrArCrUdTdT | 96%
37 | sense rCrGrArArUrArUrArCrArGrCrCrUrUrArArArAdTdT / antisense rUrUrUrUrArArGrGrCrUrGrUrArUrArUrUrCrGdGdT | 89.4%
38 | sense rArArUrUrCrArUrArUrArGrCrArUrCrArArArGdTdT / antisense rCrUrUrUrGrArUrGrCrUrArUrArUrGrArArUrUdCdT | 70%
39 | sense rUrArGrCrArArArArUrGrGrCrArGrArArUrUrCdTdT / antisense rGrArArUrUrCrUrGrCrCrArUrUrUrUrGrCrUrAdGdC | 63%
40 | sense rUrGrGrArArGrArArCrUrCrGrArArGrArArGrGdTdT / antisense rCrCrUrUrCrUrUrCrGrArGrUrUrCrUrUrCrCrAdAdC | 59.9%
41 | sense rGrCrArArGrArGrCrUrUrCrGrGrCrGrCrCrUrAdTdT / antisense rUrArGrGrCrGrCrCrGrArArGrCrUrCrUrUrGrCdAdG | 82.6%
42 | sense rGrCrCrArUrArUrCrArGrUrGrCrUrArGrCrArAdTdT / antisense rUrUrGrCrUrArGrCrArCrUrGrArUrArUrGrGrCdTdC | 92.1%
43 | sense rCrArGrUrGrCrUrArGrCrArArArArUrGrGrCrAdTdT / antisense rUrGrCrCrArUrUrUrUrGrCrUrArGrCrArCrUrGdAdT | 87.5%
44 | sense rArArArUrUrUrCrArCrUrGrCrArArArGrGrArGdTdT / antisense rCrUrCrCrUrUrUrGrCrArGrUrGrArArArUrUrUdTdC | 45.8%
45 | sense rUrGrArGrUrGrArUrGrArArGrGrArArGrArCrUdTdT / antisense rArGrUrCrUrUrCrCrUrUrCrArUrCrArCrUrCrAdGdT | 62.3%
46 | sense rGrUrCrUrArGrArArGrArUrGrArCrGrArArGrAdTdT / antisense rUrCrUrUrCrGrUrCrArUrCrUrUrCrUrArGrArCdCdC | 92%
47 | sense rArArCrCrUrArGrArArArArUrUrUrCrArCrUrGdTdT / antisense rCrArGrUrGrArArArUrUrUrUrCrUrArGrGrUrUdCdA | 49.4%
48 | sense rUrGrArArCrCrUrArGrArArArArUrUrUrCrArCdTdT / antisense rGrUrGrArArArUrUrUrUrCrUrArGrGrUrUrCrAdAdG | 43%
49 | sense rArGrUrUrCrUrArArUrGrGrArGrUrGrGrUrGrGdTdT / antisense rCrCrArCrCrArCrUrCrCrArUrUrArGrArArCrUdAdT | 56.8%
50 | sense rCrUrArGrArArGrArUrGrArCrGrArArGrArCrAdTdT / antisense rUrGrUrCrUrUrCrGrUrCrArUrCrUrUrCrUrArGdAdC | 88.8%
51 | sense rGrArGrCrCrArUrArUrCrArGrUrGrCrUrArGrCdTdT / antisense rGrCrUrArGrCrArCrUrGrArUrArUrGrGrCrUrCdTdT | 90.9%
52 | sense rUrUrGrUrCrCrUrGrCrArArGrArGrCrUrUrCrGdTdT / antisense rCrGrArArGrCrUrCrUrUrGrCrArGrGrArCrArAdCdT | 51.9%
